Assay results taken from ChEMBL document CHEMBL4257227, “Deubiquitinase inhibitors and methods for use of the same” (2016).
Activity calls are given as the source filed them. The rule behind the calls is not given here.

How the values were obtained:
[1] = AUClast in Balb/c mouse at 30 mg/kg, po by LC-MS analysis; type: ADME, organism-based; set-up: dose 30 mg/kg, route oral, time 0 - last; conditions: in vivo
[2] = system: A-375; test: Antitumor activity against human A375 cells xenografted in NOD/SCID/gamma-2 knockout mouse assessed as inhibition of tumor growth at 7.5 to 15 mg/kg, ip once per day for 8 days; type: functional, organism-based
[3] = Plasma concentration in Balb/c mouse at 30 mg/kg, po after 7 hrs by LC-MS analysis; type: ADME, organism-based
[4] = Plasma concentration in Balb/c mouse at 10 mg/kg, iv after 0.5 hrs by LC-MS analysis; type: ADME, organism-based
[5] = system: A-375; test: Antitumor activity against human A375 cells xenografted in NOD/SCID/gamma-2 knockout mouse assessed as inhibition of tumor growth at 7.5 mg/kg, ip once per day for 8 days; type: functional, organism-based
[6] = target: T1, Ubiquitin carboxyl-terminal hydrolase 5 (Homo sapiens) (UniProt P45974); test: Inhibition of USP5 in Vemurafenib […] human A375R cells assessed as reduction in STAT3 phosphorylation
T1 sequence (whole entry): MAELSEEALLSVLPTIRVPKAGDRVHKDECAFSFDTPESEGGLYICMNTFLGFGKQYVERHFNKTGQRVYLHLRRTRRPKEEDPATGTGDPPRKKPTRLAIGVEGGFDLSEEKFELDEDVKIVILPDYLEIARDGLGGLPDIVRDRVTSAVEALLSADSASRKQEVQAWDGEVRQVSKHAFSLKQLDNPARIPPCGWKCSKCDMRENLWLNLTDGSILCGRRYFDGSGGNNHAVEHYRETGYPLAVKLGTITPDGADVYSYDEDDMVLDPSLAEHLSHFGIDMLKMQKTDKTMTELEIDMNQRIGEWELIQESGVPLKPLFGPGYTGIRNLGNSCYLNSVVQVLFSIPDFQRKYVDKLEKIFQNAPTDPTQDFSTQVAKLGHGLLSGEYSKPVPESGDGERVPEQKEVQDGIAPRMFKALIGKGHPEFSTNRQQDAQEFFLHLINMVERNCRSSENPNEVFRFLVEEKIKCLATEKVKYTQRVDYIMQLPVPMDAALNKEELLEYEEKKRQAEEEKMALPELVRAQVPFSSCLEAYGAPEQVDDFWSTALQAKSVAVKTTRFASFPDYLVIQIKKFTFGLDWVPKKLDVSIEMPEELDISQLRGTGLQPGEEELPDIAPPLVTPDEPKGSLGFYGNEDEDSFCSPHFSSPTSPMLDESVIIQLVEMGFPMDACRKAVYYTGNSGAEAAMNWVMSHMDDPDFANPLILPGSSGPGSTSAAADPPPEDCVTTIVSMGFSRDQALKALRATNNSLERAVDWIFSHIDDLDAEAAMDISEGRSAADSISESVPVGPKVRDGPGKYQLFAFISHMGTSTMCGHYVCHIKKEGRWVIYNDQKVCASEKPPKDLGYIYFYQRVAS

[7] = system: A375/R; test: Induction of apoptosis in human A375R cells assessed as induction of PARP cleavage; type: functional, cell-based
[8] = target: Ubiquitin carboxyl-terminal hydrolase 9X (Homo sapiens) (UniProt Q93008); test: Inhibition of USP9x in Vemurafenib sensitive human A375 cells assessed as STAT3 phosphorylation
[9] = system: Sindbis virus; test: Antiviral activity against Sindbis virus infected in African green monkey Vero cells assessed as reduction in viral plaque forming units; type: functional, organism-based
[10] = system: A-375; test: Antitumor activity against human A375 cells xenografted in NOD/SCID/gamma-2 knockout mouse assessed as inhibition of tumor growth at 7.5 to 15 mg/kg, ip once per day for 8 days followed by drug cessation and measured 10 days after drug cessation; type: functional, organism-based
[11] = system: La Crosse virus; test: Antiviral activity against La Crosse virus virus infected in human Be2-c cells assessed as reduction in viral plaque forming units; type: functional, organism-based
[12] = Plasma concentration in Balb/c mouse at 10 mg/kg, iv after 7 hrs by LC-MS analysis; type: ADME, organism-based
[13] = system: Mus musculus; test: Toxicity in human MM1S cells xenografted NOD/SCID/gamma-2 knockout mouse assessed effect on body weight at 15 to 20 mg/kg, ip once per day for 14 days; type: functional, organism-based
[14] = system: Mus musculus; test: Toxicity in human A375 cells xenografted NOD/SCID/gamma-2 knockout mouse assessed as effect on behaviour at 7.5 to 15 mg/kg, ip once per day for 8 days; type: functional, organism-based
[15] = Plasma concentration in Balb/c mouse at 10 mg/kg, iv after 4 hrs by LC-MS analysis; type: ADME, organism-based
[16] = target: Ubiquitin carboxyl-terminal hydrolase 9X (Homo sapiens) (UniProt Q93008); test: Inhibition of Usp9x in human A375 cells; type: cell-based
[17] = system: Mus musculus; test: Toxicity in human MM1S cells xenografted NOD/SCID/gamma-2 knockout mouse assessed effect on body weight at 2.5 to 10 mg/kg, ip once per day for 14 days; type: functional, organism-based
[18] = system: A375/R; test: Induction of apoptosis in human A375R cells assessed as induction of caspase-8 activation; type: functional, cell-based
[19] = system: Mus musculus; test: Inhibition of Usp9x in human MM1S cells xenografted in NOD/SCID/gamma-2 knockout mouse assessed as reduction in Mcl-1 protein levels at 15 mg/kg, ip once per day for 14 days; type: functional, organism-based
[20] = system: NCI-H929; test: Induction of apoptosis in human NCI-H929 cells at 0.3125 to 5 uM incubated for 24 hrs by annexin V staining based flow cytometry; type: functional, cell-based
[21] = target: T1, Ubiquitin carboxyl-terminal hydrolase 5 (Homo sapiens); test: Inhibition of USP5 in Vemurafenib […] human A375R cells assessed as increase in NOXA protein level
[22] = system: A375/R; test: Induction of apoptosis in human A375R cells assessed as induction of Bid cleavage; type: functional, cell-based
[23] = system: Mus musculus; test: Inhibition of Usp9x in tumor of human MM1S cells xenografted in NOD/SCID/gamma-2 knockout mouse at 15 mg/kg, ip once per day for 14 days; type: organism-based; conditions: in vivo, 336 h

Ubiquitin carboxyl-terminal hydrolase 9X (Homo sapiens), sequence (Q93008 whole entry): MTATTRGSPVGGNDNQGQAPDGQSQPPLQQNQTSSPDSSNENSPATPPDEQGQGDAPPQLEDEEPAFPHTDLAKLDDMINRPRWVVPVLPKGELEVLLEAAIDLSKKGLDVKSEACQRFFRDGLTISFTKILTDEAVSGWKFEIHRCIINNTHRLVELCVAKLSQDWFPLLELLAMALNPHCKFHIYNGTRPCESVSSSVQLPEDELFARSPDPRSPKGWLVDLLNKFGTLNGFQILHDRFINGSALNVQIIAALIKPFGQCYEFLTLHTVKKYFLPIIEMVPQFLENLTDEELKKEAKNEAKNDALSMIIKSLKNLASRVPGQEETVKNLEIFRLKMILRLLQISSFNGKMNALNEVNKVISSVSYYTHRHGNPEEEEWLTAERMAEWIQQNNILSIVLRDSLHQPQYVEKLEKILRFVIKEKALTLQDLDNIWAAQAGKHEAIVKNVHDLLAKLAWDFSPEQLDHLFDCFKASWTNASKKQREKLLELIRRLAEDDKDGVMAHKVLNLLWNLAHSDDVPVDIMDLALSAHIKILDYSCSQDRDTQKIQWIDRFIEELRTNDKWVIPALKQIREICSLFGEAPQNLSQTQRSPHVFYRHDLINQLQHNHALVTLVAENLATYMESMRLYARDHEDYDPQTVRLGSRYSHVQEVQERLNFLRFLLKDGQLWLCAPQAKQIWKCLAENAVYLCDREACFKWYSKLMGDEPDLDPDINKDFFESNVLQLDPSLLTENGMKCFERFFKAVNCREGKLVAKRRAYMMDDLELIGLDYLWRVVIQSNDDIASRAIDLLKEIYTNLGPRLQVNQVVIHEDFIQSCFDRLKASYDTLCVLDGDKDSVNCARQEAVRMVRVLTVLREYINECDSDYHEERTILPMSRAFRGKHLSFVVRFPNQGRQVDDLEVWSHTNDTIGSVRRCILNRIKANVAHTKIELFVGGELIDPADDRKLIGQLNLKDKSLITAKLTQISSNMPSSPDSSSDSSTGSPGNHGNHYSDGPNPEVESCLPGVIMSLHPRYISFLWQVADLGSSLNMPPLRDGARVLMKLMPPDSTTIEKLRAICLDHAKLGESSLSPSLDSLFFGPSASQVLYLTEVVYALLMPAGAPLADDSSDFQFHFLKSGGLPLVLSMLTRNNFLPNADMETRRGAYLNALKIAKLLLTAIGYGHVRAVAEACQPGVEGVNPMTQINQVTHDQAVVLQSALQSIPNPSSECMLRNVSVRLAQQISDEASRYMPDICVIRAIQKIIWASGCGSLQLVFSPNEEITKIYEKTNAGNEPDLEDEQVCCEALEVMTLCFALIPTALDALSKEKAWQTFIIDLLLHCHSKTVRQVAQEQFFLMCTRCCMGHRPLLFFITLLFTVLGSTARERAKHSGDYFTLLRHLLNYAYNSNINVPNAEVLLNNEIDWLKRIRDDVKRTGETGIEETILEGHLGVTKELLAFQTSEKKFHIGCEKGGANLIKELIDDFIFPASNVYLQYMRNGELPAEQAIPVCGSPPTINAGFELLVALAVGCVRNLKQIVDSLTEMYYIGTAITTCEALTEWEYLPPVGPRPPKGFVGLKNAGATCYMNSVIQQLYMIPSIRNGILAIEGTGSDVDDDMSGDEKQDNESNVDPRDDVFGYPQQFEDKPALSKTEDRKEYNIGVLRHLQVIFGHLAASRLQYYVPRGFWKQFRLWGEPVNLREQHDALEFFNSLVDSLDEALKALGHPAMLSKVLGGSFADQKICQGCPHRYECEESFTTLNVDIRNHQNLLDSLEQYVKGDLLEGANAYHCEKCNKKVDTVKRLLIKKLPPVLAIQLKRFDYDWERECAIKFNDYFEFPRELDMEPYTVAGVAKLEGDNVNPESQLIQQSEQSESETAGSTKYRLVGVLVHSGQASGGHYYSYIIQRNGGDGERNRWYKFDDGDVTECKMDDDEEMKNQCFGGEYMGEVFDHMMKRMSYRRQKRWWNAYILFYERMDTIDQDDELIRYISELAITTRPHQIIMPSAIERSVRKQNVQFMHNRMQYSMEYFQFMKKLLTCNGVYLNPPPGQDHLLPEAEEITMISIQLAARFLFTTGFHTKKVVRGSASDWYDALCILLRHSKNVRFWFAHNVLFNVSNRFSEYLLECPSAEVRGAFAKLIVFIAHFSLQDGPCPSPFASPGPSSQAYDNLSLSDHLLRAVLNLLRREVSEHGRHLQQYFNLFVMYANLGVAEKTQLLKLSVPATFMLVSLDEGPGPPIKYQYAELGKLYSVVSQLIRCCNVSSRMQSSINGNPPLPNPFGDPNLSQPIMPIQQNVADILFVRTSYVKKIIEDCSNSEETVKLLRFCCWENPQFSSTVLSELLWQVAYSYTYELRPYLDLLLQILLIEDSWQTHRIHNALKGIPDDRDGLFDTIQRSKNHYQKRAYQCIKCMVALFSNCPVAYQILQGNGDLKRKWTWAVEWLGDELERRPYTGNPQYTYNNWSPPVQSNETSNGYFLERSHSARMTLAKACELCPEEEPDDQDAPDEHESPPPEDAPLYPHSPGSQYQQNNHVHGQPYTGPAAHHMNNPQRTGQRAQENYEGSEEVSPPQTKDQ

AUC(0-t) [1]: 291 to 349 ng·h/mL | concentration at 7 h [3]: 16.1 to 37.6 ng/mL | concentration at 0.5 h [4]: 1220 to 1880 ng/mL | inhibition [6]: Active | inhibition [8]: Active | concentration at 7 h [12]: 38.6 to 208 ng/mL | concentration at 4 h [15]: 126 to 289 ng/mL | inhibition [16]: Active | inhibition [21]: Active | inhibition (INH) [23]: Active
SMILES: CCCC(NC(=O)/C(C#N)=C/c1nc(Cl)ccc1Cl)c1ccc(OCCN2CCOCC2)cc1 (stereo not drawn)
TGI [2]: Active | TGI [5]: Active | Activity [7]: Active | Activity [9]: Active | TGI [10]: inactive | Activity [11]: Active | Activity [13]: Toxic | Activity [14]: Not toxic | Activity [17]: Not toxic | Activity [18]: Active | inhibition [19]: Active | Activity [20]: Active | Activity [22]: Active
